According to ChEMBL document CHEMBL5543172, “Novel Isoalantolactone-Based Derivatives as Potent NLRP3 Inflammasome Inhibitors: Design, Synthesis, and Biological Characterization” (J Med Chem, 2024):
pIC50: −log10 of the molar value. The source made the active and inactive calls. No cut-off for these calls is given here.

Tests used:
BMDM = test: Inhibition of pyroptosis in LPS/nigericin induced […] cells assessed as reduction in […] at […] preincubated with LPS for 3 hrs followed by compound addition for 40 mins and further stimulated with nigericin for 40 mins by LDH assay; format: functional, cell-based; conditions: dose lower 0.25 µM, time 80.0 min
[1] = MRT (0 to t) in male C57BL/6 mouse at 30 mg/kg, ip measured upto 1440 mins by LC-MS/MS analysis; format: ADME, organism-based; conditions: in vivo
[2] = Cmax in male C57BL/6 mouse at 30 mg/kg, ip measured upto 1440 mins by LC-MS/MS analysis; format: ADME, organism-based; conditions: in vivo
Mus musculus [3] = test: Anti-colitis activity against DSS-induced ulcerative colitis C57BL/6 mouse model assessed as alleviation of goblet cell depletion at 15 to 30 mg/kg, ip administered daily and measured after 10 days by H and E staining based analysis; format: functional, organism-based; conditions: dose 15-30 mg/kg, time 10.0 day
[4] = target: NACHT, LRR and PYD domains-containing protein 3 (Mus musculus) (UniProt Q8R4B8); test: Inhibition of NLRP3 in LPS/nigericin induced […] mouse BMDM cells assessed as inhibition of IL-18 secretion 0.25 to 1 uM preincubated with LPS for 3 hrs followed by compound addition for 40 mins and further stimulated with nigericin for 40 mins by ELISA method; format: cell-based; conditions: dose 0.25-1 µM, time 80.0 min
Sequence of NACHT, LRR and PYD domains-containing protein 3 (Mus musculus) (Q8R4B8 whole entry, the tested form may be a part): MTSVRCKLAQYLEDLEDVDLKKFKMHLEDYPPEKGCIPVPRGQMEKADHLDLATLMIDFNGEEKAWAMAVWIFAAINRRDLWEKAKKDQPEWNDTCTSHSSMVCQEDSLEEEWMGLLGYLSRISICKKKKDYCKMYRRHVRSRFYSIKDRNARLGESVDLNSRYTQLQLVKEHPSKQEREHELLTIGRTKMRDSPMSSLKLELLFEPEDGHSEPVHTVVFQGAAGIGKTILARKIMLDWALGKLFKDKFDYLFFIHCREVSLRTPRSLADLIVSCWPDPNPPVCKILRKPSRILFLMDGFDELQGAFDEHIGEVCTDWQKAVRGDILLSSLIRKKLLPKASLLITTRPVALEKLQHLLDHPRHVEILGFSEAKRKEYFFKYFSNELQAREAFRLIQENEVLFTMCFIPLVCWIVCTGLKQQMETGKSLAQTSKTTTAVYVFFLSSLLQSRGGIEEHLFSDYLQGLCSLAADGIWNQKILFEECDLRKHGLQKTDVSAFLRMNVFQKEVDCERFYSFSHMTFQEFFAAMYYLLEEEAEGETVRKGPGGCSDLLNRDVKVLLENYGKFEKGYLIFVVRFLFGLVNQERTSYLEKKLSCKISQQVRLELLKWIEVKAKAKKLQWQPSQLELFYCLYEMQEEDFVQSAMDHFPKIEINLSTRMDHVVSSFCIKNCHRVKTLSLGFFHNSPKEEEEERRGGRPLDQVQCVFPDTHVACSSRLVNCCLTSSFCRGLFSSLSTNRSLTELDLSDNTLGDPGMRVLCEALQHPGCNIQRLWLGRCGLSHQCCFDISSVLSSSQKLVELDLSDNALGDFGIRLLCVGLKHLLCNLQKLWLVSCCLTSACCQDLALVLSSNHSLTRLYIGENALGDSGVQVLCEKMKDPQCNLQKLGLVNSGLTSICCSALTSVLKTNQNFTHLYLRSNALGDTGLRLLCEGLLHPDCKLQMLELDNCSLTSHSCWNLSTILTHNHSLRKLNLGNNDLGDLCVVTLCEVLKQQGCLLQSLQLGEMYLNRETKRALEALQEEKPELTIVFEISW

Mus musculus [5] = test: Anti-colitis activity against DSS-induced ulcerative colitis C57BL/6 mouse model assessed as alleviation of grave ulcer formation in colon at 15 to 30 mg/kg, ip administered daily and measured after 10 days by H and E staining based analysis; format: functional, organism-based; conditions: dose 15-30 mg/kg, time 10.0 day
[6] = Tmax in male C57BL/6 mouse at 30 mg/kg, ip measured upto 1440 mins by LC-MS/MS analysis; format: ADME, organism-based; conditions: in vivo
[7] = Drug distribution in C57BL/6 mouse colon at 30 mg/kg, ip measured after 2 hrs by LC-MS/MS analysis; format: ADME, organism-based; conditions: read-out: Drug uptake
Mus musculus [8] = test: Anti-colitis activity against DSS-induced ulcerative colitis C57BL/6 mouse model assessed as reduction in TNF-alpha level at 15 to 30 mg/kg, ip by ELISA method; format: functional, organism-based; conditions: dose 15-30 mg/kg
Homo sapiens = species on record: Homo sapiens; test: Activation of GlyRalpha1beta (unknown origin) at 1 uM relative to control
[9] = Genotoxicity in mouse BMDM cells; format: toxicity, cell-based
[10] = target: Sodium-dependent serotonin transporter (Homo sapiens) (UniProt P31645); test: Activation of 5-HTT (unknown origin) at 1 uM relative to control
Sequence of Sodium-dependent serotonin transporter (Homo sapiens) (P31645 whole entry, looked up): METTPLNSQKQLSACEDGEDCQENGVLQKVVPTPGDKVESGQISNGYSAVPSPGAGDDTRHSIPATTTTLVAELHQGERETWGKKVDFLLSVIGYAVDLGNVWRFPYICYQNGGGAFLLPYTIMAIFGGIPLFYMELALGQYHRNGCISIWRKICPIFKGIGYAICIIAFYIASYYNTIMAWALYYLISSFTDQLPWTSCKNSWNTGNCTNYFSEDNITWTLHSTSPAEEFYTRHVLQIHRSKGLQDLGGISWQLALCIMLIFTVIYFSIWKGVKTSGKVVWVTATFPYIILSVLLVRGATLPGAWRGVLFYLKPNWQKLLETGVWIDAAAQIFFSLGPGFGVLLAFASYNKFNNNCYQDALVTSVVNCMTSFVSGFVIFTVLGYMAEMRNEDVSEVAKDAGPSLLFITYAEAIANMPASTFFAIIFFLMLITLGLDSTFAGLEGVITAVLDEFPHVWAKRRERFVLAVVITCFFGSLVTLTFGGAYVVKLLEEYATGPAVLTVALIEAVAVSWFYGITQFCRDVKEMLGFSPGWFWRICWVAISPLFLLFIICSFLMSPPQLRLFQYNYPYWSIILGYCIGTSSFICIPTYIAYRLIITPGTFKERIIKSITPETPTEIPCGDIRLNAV

[11] = target: 3',5'-cyclic-AMP phosphodiesterase 4D (Homo sapiens) (UniProt Q08499); test: Activation of PDE4D2 (unknown origin) at 1 uM relative to control
[12] = target: Substance-K receptor (Homo sapiens) (UniProt P21452); test: Activation of NK2 receptor (unknown origin) at 1 uM relative to control
Sequence of Substance-K receptor (Homo sapiens) (P21452 whole entry, the tested form may be a part): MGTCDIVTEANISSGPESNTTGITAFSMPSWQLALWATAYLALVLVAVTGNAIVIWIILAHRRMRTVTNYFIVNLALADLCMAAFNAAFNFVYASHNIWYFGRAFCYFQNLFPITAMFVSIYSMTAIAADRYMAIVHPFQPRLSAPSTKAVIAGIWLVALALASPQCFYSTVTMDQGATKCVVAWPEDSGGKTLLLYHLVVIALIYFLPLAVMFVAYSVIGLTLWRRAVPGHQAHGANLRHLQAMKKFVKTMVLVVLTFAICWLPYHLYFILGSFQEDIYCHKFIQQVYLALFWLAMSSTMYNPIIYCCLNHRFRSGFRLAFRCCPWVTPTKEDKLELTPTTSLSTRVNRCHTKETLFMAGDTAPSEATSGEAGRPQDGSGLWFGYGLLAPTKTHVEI

[13] = target: Substance-K receptor (Homo sapiens) (UniProt P21452); test: Inhibition of NK2 receptor (unknown origin) at 1 uM relative to control
[14] = target: NACHT, LRR and PYD domains-containing protein 3 (Mus musculus) (UniProt Q8R4B8); test: Inhibition of NLRP3 inflammasome activation in LPS/Nigericin induced mouse BMDM cells assessed as effect on pro-casapase-1 expression at 0.25 to 1 uM preincubated with LPS for 3 hrs followed by compound addition for 40 mins and further stimulated with nigericin for 40 mins by Western blot analysis; format: cell-based; conditions: dose 0.25-1 µM, time 80.0 min
[15] = target: Muscarinic acetylcholine receptor M3 (Homo sapiens) (UniProt P20309); test: Inhibition of muscarinic M3 receptor (unknown origin) at 1 uM relative to control
Sequence of Muscarinic acetylcholine receptor M3 (Homo sapiens) (P20309 whole entry, looked up): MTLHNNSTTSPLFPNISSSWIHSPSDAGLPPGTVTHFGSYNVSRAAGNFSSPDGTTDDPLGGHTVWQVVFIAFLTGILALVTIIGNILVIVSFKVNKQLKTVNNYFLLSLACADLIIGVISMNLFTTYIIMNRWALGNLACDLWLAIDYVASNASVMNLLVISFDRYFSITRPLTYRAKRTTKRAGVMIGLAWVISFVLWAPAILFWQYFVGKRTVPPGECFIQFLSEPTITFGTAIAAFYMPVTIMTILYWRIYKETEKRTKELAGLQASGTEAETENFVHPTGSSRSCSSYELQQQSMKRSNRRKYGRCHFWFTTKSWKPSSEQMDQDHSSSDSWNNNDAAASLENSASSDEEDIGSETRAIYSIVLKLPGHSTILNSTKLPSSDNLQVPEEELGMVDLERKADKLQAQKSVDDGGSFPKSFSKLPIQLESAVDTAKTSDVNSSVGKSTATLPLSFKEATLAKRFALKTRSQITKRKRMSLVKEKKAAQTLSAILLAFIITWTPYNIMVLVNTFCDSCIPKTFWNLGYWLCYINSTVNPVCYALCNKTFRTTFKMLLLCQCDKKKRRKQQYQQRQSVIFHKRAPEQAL

[16] = Drug distribution in C57BL/6 mouse colon at 30 mg/kg, ip measured after 8 hrs by LC-MS/MS analysis; format: ADME, organism-based; conditions: read-out: Drug uptake
[17] = target: Voltage-dependent N-type calcium channel subunit alpha-1B (Homo sapiens) (UniProt Q00975); test: Inhibition of Cav2.2 (unknown origin) at 1 uM relative to control
Sequence of Voltage-dependent N-type calcium channel subunit alpha-1B (Homo sapiens) (Q00975 whole entry, looked up): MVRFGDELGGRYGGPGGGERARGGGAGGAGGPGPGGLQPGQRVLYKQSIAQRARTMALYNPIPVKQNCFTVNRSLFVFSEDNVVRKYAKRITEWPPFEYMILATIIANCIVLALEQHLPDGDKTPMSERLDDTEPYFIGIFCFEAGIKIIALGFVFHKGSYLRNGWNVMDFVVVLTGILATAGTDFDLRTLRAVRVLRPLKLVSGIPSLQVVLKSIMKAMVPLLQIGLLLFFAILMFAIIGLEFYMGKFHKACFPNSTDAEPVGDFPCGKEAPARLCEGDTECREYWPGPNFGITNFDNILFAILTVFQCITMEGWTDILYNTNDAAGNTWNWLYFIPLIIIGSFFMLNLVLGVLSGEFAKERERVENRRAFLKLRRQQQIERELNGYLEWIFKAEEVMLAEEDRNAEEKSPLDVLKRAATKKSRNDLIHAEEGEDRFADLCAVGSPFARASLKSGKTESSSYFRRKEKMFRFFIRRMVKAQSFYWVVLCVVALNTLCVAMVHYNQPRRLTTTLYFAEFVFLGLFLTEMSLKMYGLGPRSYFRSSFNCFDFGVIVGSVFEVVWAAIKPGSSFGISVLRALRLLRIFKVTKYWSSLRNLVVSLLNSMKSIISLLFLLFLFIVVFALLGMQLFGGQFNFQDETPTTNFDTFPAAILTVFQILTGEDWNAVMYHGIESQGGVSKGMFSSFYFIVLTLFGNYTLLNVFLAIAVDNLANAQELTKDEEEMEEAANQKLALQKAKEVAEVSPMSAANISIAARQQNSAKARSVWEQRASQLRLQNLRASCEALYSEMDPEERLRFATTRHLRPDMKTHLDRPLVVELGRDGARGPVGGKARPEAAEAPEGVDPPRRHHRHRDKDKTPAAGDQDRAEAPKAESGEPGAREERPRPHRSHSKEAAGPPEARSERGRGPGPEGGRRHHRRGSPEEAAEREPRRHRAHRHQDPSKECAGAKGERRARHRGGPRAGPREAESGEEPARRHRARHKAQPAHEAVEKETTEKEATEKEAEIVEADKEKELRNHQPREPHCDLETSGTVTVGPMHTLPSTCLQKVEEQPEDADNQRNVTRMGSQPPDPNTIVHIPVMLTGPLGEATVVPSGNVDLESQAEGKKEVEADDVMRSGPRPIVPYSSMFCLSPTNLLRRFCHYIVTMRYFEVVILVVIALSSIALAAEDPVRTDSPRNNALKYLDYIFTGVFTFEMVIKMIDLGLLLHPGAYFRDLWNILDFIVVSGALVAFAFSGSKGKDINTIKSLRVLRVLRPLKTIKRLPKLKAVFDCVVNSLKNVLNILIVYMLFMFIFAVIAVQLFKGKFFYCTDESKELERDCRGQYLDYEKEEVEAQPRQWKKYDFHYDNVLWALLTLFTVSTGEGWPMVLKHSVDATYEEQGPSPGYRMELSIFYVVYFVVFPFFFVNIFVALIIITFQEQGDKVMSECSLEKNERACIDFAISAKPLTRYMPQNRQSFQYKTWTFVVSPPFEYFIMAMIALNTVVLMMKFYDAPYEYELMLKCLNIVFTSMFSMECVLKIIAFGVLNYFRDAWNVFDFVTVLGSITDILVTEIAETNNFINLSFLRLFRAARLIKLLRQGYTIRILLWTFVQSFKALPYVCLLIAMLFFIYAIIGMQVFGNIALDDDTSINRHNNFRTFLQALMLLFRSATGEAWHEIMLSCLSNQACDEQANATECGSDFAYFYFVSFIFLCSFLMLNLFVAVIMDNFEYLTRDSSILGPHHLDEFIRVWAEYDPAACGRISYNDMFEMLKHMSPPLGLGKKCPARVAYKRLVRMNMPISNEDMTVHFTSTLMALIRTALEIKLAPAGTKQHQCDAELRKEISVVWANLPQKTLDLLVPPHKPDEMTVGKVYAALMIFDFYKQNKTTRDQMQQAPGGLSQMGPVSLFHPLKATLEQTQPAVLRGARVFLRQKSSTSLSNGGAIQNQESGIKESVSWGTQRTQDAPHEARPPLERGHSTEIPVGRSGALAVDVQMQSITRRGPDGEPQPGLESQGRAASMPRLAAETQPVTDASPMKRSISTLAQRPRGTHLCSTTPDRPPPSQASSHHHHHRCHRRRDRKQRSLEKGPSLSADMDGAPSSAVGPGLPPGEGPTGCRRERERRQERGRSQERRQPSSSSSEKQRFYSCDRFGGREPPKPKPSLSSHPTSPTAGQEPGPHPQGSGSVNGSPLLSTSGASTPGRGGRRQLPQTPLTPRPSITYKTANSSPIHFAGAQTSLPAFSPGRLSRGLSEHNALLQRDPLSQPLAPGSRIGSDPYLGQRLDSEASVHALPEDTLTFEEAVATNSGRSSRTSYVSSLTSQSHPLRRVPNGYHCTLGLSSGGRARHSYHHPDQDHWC

THP-1 [18] = test: Binding affinity to NLRP3deltaLRR mutant in PMA- differentiated human THP-1 cells assessed as protection of pronase-mediated protein degradation at 100 to 1000 uM pretreated with LPS for 3 hrs followed by incubation with compound for 50 mins followed by pronase digestion for 30 mins by DARTS analysis; format: cell-based; conditions: dose 100-1000 µM, time 80.0 min
THP-1 [19] = test: Inhibition of pyroptosis in LPS/nigericin induced PMA-differentiated human THP-1 cells assessed as reduction in LDH release at […] preincubated with LPS for 3 hrs followed by compound addition for 40 mins and further stimulated with nigericin for 40 mins by LDH assay; format: functional, cell-based; conditions: dose lower 0.25 µM, time 80.0 min
Mus musculus [20] = test: Anti-colitis activity against DSS-induced ulcerative colitis C57BL/6 mouse model assessed as alleviation of thickening of inherent base layer in colon at 15 to 30 mg/kg, ip administered daily and measured after 10 days by H and E staining based analysis; format: functional, organism-based; conditions: dose 15-30 mg/kg, time 10.0 day
THP-1 [21] = test: Inhibition of NLRP3-NEK7 interaction in LPS/nigericin stimulated human THP-1 cells at 1 uM preincubated with LPS for 3 hrs followed by compound addition for 40 mins and further stimulated with nigericin for 40 mins by immunoprecipitation analysis; format: cell-based; conditions: time 80.0 min
[22] = target: Muscarinic acetylcholine receptor M3 (Homo sapiens) (UniProt P20309); test: Activation of muscarinic M3 receptor (unknown origin) at 1 uM relative to control
Mus musculus [23] = test: Anti-colitis activity against DSS-induced ulcerative colitis C57BL/6 mouse model assessed as improvement in body weight loss at 15 to 30 mg/kg, ip administered daily and measured upto 10 days; format: functional, organism-based; conditions: dose 15-30 mg/kg, time <= 10.0 day
[24] = target: NACHT, LRR and PYD domains-containing protein 3 (Mus musculus) (UniProt Q8R4B8); test: Inhibition of NLRP3 inflammasome activation in LPS/Nigericin induced mouse BMDM cells assessed as effect on NLRP3 expression at 0.25 to 1 uM preincubated with LPS for 3 hrs followed by compound addition for 40 mins and further stimulated with nigericin for 40 mins by Western blot analysis; format: cell-based; conditions: dose 0.25-1 µM, time 80.0 min
[25] = target: Voltage-dependent N-type calcium channel subunit alpha-1B (Homo sapiens) (UniProt Q00975); test: Activation of Cav2.2 (unknown origin) at 1 uM relative to control
[26] = target: Substance-P receptor (Homo sapiens) (UniProt P25103); test: Inhibition of NK1 receptor (unknown origin) at 1 uM relative to control
[27] = target: NACHT, LRR and PYD domains-containing protein 3 (Mus musculus, UniProt Q8R4B8); test: Inhibition of NLRP3 inflammasome activation in LPS-activated mouse BMDM cells assessed as inhibition of nigericin induced IL-1beta secretion preincubated with LPS for 3 hrs followed by compound addition for 40 mins and further stimulated with nigericin for 40 mins by ELISA method; format: cell-based
Sequence of NACHT, LRR and PYD domains-containing protein 3 (Q8R4B8 whole entry, the tested form may be a part): as the sequence (Q8R4B8 whole entry, the tested form may be a part) above

[28] = target: Prostaglandin E2 receptor EP2 subtype (Homo sapiens) (UniProt P43116); test: Inhibition of EP2 receptor (unknown origin) at 1 uM relative to control

In the case of `C=C1C(=O)O[C@@H]2C[C@@]3(C)CC[C@@H](OC(=O)c4cnc(Cl)cc4Cl)C(=C)[C@@H]3C[C@H]12`, the inhibition (BMDM) was “Active”, the MRT last at 24 h [1] was 11 h and the Cmax [2] was 1.57 ng/mL. For the same molecule, the Activity (Mus musculus [3]) was “Active”, the inhibition [4] was “Active” and the Activity (Mus musculus [5]) was “Active”. The Tmax [6] was 0.78 h, the concentration at 2 h [7] was 4610 ng/g and the Activity (Mus musculus [8]) was “Active”. The Activity (Homo sapiens) was under 50%, the Activity [9] was “Non-Toxic” and the Activity [10] was under 50%. It also gave an Activity [11] of under 50%, an Activity [12] of under 50% and an inhibition [13] of under 50%. For the same molecule, the Activity [14] was “inactive”, the inhibition [15] was under 50% and the concentration at 8 h [16] was 80.2 ng/g. For the same molecule, the inhibition [17] was under 50%, the Activity (THP-1 [18]) was “Active” and the inhibition (THP-1 [19]) was “Active”. The Activity (Mus musculus [20]) was “Active”, the inhibition (THP-1 [21]) was “Active” and the Activity [22] was under 50%. For the same molecule, the Activity (Mus musculus [23]) was “Active”, the inhibition [24] was “inactive” and the Activity [25] was under 50%. It also gave an inhibition [26] of under 50%, a pIC50 [27] of 6.13 and an inhibition [28] of under 50%.
